# Experimental data taken from patent US7943770B2, “Fused quinoline derivative and use thereof” (Takeda Pharmaceutical Company Limited, priority 2004, dated 2011).
# Molecular target: T1, hNK2 receptor (Homo sapiens, UniProt P21452)
# T1 construct: host or cells: CHO cells
# T1 sequence (P21452 1-398): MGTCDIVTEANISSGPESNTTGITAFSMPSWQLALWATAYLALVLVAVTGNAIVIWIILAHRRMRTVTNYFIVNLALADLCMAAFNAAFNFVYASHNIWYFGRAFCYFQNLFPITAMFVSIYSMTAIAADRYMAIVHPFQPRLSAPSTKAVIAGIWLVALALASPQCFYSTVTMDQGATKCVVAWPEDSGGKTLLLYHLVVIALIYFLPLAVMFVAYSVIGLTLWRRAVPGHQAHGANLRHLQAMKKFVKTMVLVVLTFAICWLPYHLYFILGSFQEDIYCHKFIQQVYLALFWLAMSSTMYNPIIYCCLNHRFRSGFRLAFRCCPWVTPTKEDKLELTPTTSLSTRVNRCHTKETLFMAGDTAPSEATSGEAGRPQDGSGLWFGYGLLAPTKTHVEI
# Test: Antagonistic activity determined by intracellular calcium concentration (FLIPR) using Neurokinin A and hNK2 receptor-expressing CHO cell
# Assay type: cell-based
# Conditions: test compound 1 μM; increase in intracellular calcium due to Neurokinin A, hNK2 receptor-expressing CHO cells
# Method: hNK2 receptor-expressing CHO cells were seeded on a 96 well plate at 3×10^4 cell/well and cultured for 24 hrs. Then the medium was aspirated and 20 mM HEPES (pH 7.4)—HBSS buffer (50 μL) was added. Thereto was added prepared 1× Reagent buffer (50 μL, FLIPR Calcium Assay Kit: Molecular Devices Corporation, Japan) and the mixture was reacted at 37° C. for 1 hr. A test compound diluted with 20 mM HEPES (pH 7.4)—HBSS buffer (50 μL, containing 0.4% dimethyl sulfoxide) was added to examine antagonistic activity of the test compound. Thereafter, 20 nM Neurokinin A solution (50 μL) was added, and change in the intracellular calcium concentration were measured by FLIPR (Molecular Devices Corporation, Japan).
row,Assay of Antagonistic activity Inhibitory rate (%),Structure (SMILES)
1,45,O=C(N[C@@H]1CCCC[C@@H]1C(=O)N1CC[C@@H]2[C@H](c3ccccc3)Nc3ccccc3[C@@H]21)c1ccccc1 [Compound of Example 1]

# Same assay, conditions: test compound 10 μM; increase in intracellular calcium due to Neurokinin A, hNK2 receptor-expressing CHO cells
row,Assay of Antagonistic activity Inhibitory rate (%),Structure (SMILES)
1,97,O=C(N[C@@H]1CCCC[C@@H]1C(=O)N1CC[C@@H]2[C@H](c3ccccc3)Nc3ccccc3[C@@H]21)c1ccccc1 [Compound of Example 1]

# Molecular target: T1, hNK2 receptor
# Test: Radio-ligand ([125I]-NKA) receptor binding inhibitory activity using membrane fraction of hNK2 receptor-expressing CHO cell
# Conditions: membrane fraction of hNK2 receptor-expressing CHO cells, 25° C., 30 min
# How it was run: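 Inhibition of [125I]-NKA binding ([…] solution added) measured after 30 min at 25 °C using hNK2-CHO membrane fraction (20 μg/mL suspension) in pH 7.4 Tris buffer containing MnCl2, BSA and protease inhibitors. Filter-bound counts read; activity calculated as fraction of specific binding, non-specific defined with unlabeled NKA.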
row,IC50 [nM],Structure (SMILES)
1,< 1,"O=C(/C=C/c1ccc(C(F)(F)F)cc1)N[C@@H]1CCCC[C@@H]1C(=O)N1CC[C@@H]2[C@H](c3ncc[nH]3)Nc3ccccc3[C@@H]21 [Example 294, (2E)-N-((1R,2S)-2-{[(3aR,4R,9bR)-4-(1H-Imidazol-2-yl)-2,3,3a,4,5,9b-hexahydro-1H-pyrrolo[3,2-c]quinolin-1-yl]carbonyl}cyclohexyl)-3-[4-(trifluoromethyl)phenyl]acrylamide]"
2,< 10,"CCNC(=O)N[C@@H]1CCCC[C@@H]1C(=O)N1CC[C@@H]2[C@H](c3ncc[nH]3)Nc3ccccc3[C@@H]21 [Example 295, N-Ethyl-N′-((1R,2S)-2-{[(3aR,4R,9bR)-4-(1H-imidazol-2-yl)-2,3,3a,4,5,9b-hexahydro-1H-pyrrolo[3,2-c]quinolin-1-yl]carbonyl}cyclohexyl)urea]"
3,< 1,"O=C(N[C@@H]1CCCC[C@@H]1C(=O)N1CC[C@@H]2[C@H](c3ncc[nH]3)Nc3ccccc3[C@@H]21)c1ccc(C(F)(F)F)cc1 [Example 296, N-((1R,2S)-2-{[(3aR,4R,9bR)-4-(1H-Imidazol-2-yl)-2,3,3a,4,5,9b-hexahydro-1H-pyrrolo[3,2-c]quinolin-1-yl]carbonyl}cyclohexyl)-4-(trifluoromethyl)benzamide]"
4,< 1,"O=C(/C=C/c1ccc(F)cc1)N[C@@H]1CCCC[C@@H]1C(=O)N1CC[C@@H]2[C@H](c3ncc[nH]3)Nc3ccccc3[C@@H]21 [Example 297, (2E)-3-(4-Fluorophenyl)-N-((1R,2S)-2-{[(3aR,4R,9bR)-4-(1H-imidazol-2-yl)-2,3,3a,4,5,9b-hexahydro-1H-pyrrolo[3,2-c]quinolin-1-yl]carbonyl}cyclohexyl)acrylamide]"
5,< 1,"O=C(Nc1ccc(F)cc1)N[C@@H]1CCCC[C@@H]1C(=O)N1CC[C@@H]2[C@H](c3ncc[nH]3)Nc3ccccc3[C@@H]21 [Example 298, N-(4-Fluorophenyl)-N′-((1R,2S)-2-{[(3aR,4R,9bR)-4-(1H-imidazol-2-yl)-2,3,3a,4,5,9b-hexahydro-1H-pyrrolo[3,2-c]quinolin-1-yl]carbonyl}cyclohexyl)urea]"
6,< 1,"CCCCNC(=O)N[C@@H]1CCCC[C@@H]1C(=O)N1CC[C@@H]2[C@H](c3ncc[nH]3)Nc3ccccc3[C@@H]21 [Example 299, N-Butyl-N′-((1R,2S)-2-{[(3aR,4R,9bR)-4-(1H-imidazol-2-yl)-2,3,3a,4,5,9b-hexahydro-1H-pyrrolo[3,2-c]quinolin-1-yl]carbonyl}cyclohexyl)urea]"
7,< 1,"O=C(/C=C/c1cccs1)N[C@@H]1CCCC[C@@H]1C(=O)N1CC[C@@H]2[C@H](c3ncc[nH]3)Nc3ccccc3[C@@H]21 [Example 300, (2E)-N-((1R,2S)-2-{[(3aR,4R,9bR)-4-(1H-Imidazol-2-yl)-2,3,3a,4,5,9b-hexahydro-1H-pyrrolo[3,2-c]quinolin-1-yl]carbonyl}cyclohexyl)-3-thien-2-ylacrylamide]"
8,< 1,"O=C(N[C@@H]1CCCC[C@@H]1C(=O)N1CC[C@@H]2[C@H](c3ncc[nH]3)Nc3ccccc3[C@@H]21)c1ccc(F)c(Cl)c1 [Example 301, 3-Chloro-4-fluoro-N-((1R,2S)-2-{[(3aR,4R,9bR)-4-(1H-imidazol-2-yl)-2,3,3a,4,5,9b-hexahydro-1H-pyrrolo[3,2-c]quinolin-1-yl]carbonyl}cyclohexyl)benzamide]"
9,< 1,"O=C(N[C@@H]1CCCC[C@@H]1C(=O)N1CC[C@@H]2[C@H](c3ncc[nH]3)Nc3ccccc3[C@@H]21)c1ccccc1F [Example 302, 2-Fluoro-N-((1R,2S)-2-{[(3aR,4R,9bR)-4-(1H-imidazol-2-yl)-2,3,3a,4,5,9b-hexahydro-1H-pyrrolo[3,2-c]quinolin-1-yl]carbonyl}cyclohexyl)benzamide]"
10,< 1,"O=C(N[C@@H]1CCCC[C@@H]1C(=O)N1CC[C@@H]2[C@H](c3ncc[nH]3)Nc3ccccc3[C@@H]21)c1ccc(Cl)cc1 [Example 303, 4-Chloro-N-((1R,2S)-2-{[(3aR,4R,9bR)-4-(1H-imidazol-2-yl)-2,3,3a,4,5,9b-hexahydro-1H-pyrrolo[3,2-c]quinolin-1-yl]carbonyl}cyclohexyl)benzamide]"
11,< 1,"N#Cc1ccc(C(=O)N[C@@H]2CCCC[C@@H]2C(=O)N2CC[C@@H]3[C@H](c4ncc[nH]4)Nc4ccccc4[C@@H]32)cc1 [Example 304, 4-cyano-N-((1R,2S)-2-{[(3aR,4R,9bR)-4-(1H-imidazol-2-yl)-2,3,3a,4,5,9b-hexahydro-1H-pyrrolo[3,2-c]quinolin-1-yl]carbonyl}cyclohexyl)benzamide]"
12,< 1,"O=C(N[C@@H]1CCCC[C@@H]1C(=O)N1CC[C@@H]2[C@H](c3ncc[nH]3)Nc3ccccc3[C@@H]21)c1cccc(C(F)(F)F)c1 [Example 305, N-((1R,2S)-2-{[(3aR,4R,9bR)-4-(1H-Imidazol-2-yl)-2,3,3a,4,5,9b-hexahydro-1H-pyrrolo[3,2-c]quinolin-1-yl]carbonyl}cyclohexyl)-3-(trifluoromethyl)benzamide]"
13,< 10,"NC(=O)c1ccc(C(=O)N[C@@H]2CCCC[C@@H]2C(=O)N2CC[C@@H]3[C@H](c4ncc[nH]4)Nc4ccccc4[C@@H]32)cc1 [Example 306, N-((1R,2S)-2-{[(3aR,4R,9bR)-4-(1H-Imidazol-2-yl)-2,3,3a,4,5,9b-hexahydro-1H-pyrrolo[3,2-c]quinolin-1-yl]carbonyl}cyclohexyl)terephthalamide]"
14,< 1,"N#Cc1ccc(NC(=O)N[C@@H]2CCCC[C@@H]2C(=O)N2CC[C@@H]3[C@H](c4ncc[nH]4)Nc4ccccc4[C@@H]32)cc1 [Example 307, N-(4-Cyanophenyl)-N′-((1R,2S)-2-{[(3aR,4R,9bR)-4-(1H-imidazol-2-yl)-2,3,3a,4,5,9b-hexahydro-1H-pyrrolo[3,2-c]quinolin-1-yl]carbonyl}cyclohexyl)urea]"
15,< 1,"N#Cc1cccc(C(=O)N[C@@H]2CCCC[C@@H]2C(=O)N2CC[C@@H]3[C@H](c4ncc[nH]4)Nc4ccccc4[C@@H]32)c1 [Example 308, 3-Cyano-N-((1R,2S)-2-{[(3aR,4R,9bR)-4-(1H-imidazol-2-yl)-2,3,3a,4,5,9b-hexahydro-1H-pyrrolo[3,2-c]quinolin-1-yl]carbonyl}cyclohexyl)benzamide]"
16,< 1,"Cc1cc(C(=O)N[C@@H]2CCCC[C@@H]2C(=O)N2CC[C@@H]3[C@H](c4ncc[nH]4)Nc4ccccc4[C@@H]32)ccc1C#N [Example 309, 4-Cyano-N-((1R,2S)-2-{[(3aR,4R,9bR)-4-(1H-imidazol-2-yl)-2,3,3a,4,5,9b-hexahydro-1H-pyrrolo[3,2-c]quinolin-1-yl]carbonyl}cyclohexyl)-3-methylbenzamide]"
17,< 1,"O=C(N[C@@H]1CCCC[C@@H]1C(=O)N1CC[C@@H]2[C@H](c3ncc[nH]3)Nc3ccccc3[C@@H]21)c1ccc2[nH]nnc2c1 [Example 310, N-((1R,2S)-2-{[(3aR,4R,9bR)-4-(1H-Imidazol-2-yl)-2,3,3a,4,5,9b-hexahydro-1H-pyrrolo[3,2-c]quinolin-1-yl]carbonyl}cyclohexyl)-1H-1,2,3-benzotriazole-5-carboxamide]"
18,< 10,"O=C(N[C@@H]1CCCC[C@@H]1C(=O)N1CC[C@H]2[C@@H](c3ncc[nH]3)Nc3ccccc3[C@H]21)c1ccccc1 [Example 321, N-((1R,2S)-2-{[(3aS,4S,9bS)-4-(1H-Imidazol-2-yl)-2,3,3a,4,5,9b-hexahydro-1H-pyrrolo[3,2-c]quinolin-1-yl]carbonyl}cyclohexyl)benzamide]"
19,< 1,"N#Cc1ccc(C(=O)N[C@@H]2CCCC[C@@H]2C(=O)N2CC[C@@H]3[C@H](c4ccc[nH]4)Nc4ccccc4[C@@H]32)cc1 [Example 322, 4-Cyano-N-((1R,2S)-2-{[(3aR,4R,9bR)-4-(1H-pyrrol-2-yl)-2,3,3a,4,5,9b-hexahydro-1H-pyrrolo[3,2-c]quinolin-1-yl]carbonyl}cyclohexyl)benzamide]"
20,< 1,"NC(=O)c1ccc(C(=O)N[C@@H]2CCCC[C@@H]2C(=O)N2CC[C@@H]3[C@H](c4ccc[nH]4)Nc4ccccc4[C@@H]32)cc1 [Example 323, N-((1R,2S)-2-{[(3aR,4R,9bR)-4-(1H-Pyrrol-2-yl)-2,3,3a,4,5,9b-hexahydro-1H-pyrrolo[3,2-c]quinolin-1-yl]carbonyl}cyclohexyl)terephthalamide]"
21,< 10,"O=C(Nc1ccccc1)N[C@@H]1CCCC[C@@H]1C(=O)N1CCc2c(-c3ccccc3)nc3ccccc3c21 [Example 326, N-Phenyl-N′-{(1R,2S)-2-[(4-phenyl-2,3-dihydro-1H-pyrrolo[3,2-c]quinolin-1-yl)carbonyl]cyclohexyl}urea]"
